Assay results published in patent US8367698B2, “3-substituted sulfonyl piperidine derivative” (MSD K.K., priority 2008, dated 2013).
pIC50: −log10 of the molar value.

Target: T1, human LCE (Homo sapiens, UniProt Q9H5J4)
T1 sequence (Q9H5J4 1-265): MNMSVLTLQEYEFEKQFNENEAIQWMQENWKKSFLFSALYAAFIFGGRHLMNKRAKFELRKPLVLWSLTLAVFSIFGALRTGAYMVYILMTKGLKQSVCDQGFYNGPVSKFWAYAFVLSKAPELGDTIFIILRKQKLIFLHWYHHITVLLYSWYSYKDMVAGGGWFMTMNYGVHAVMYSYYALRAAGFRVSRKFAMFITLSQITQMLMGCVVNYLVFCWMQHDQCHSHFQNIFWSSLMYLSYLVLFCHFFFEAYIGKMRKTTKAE
Experiment: LCE enzymatic activity inhibition test
Assay type: biochemical
Conditions: palmitoyl-CoA and [14C]-malonyl-CoA substrate, 37° C. for 90 minutes, pH 6.5
Procedure: A test compound was dissolved in dimethylsulfoxide (DMSO) at 10 mM, and then, the resulting solution was further diluted with DMSO to prepare a 1000-fold stock solution having a concentration 1000 times higher than the concentration to be evaluated. An LCE enzymatic activity inhibition test was carried out by a modified method of Moon (J. Biol. Chem., Vol. 276, pp. 45358-45366, (2001)) et al. That is, the diluted test compound was added to a 96-well assay plate (Corning, 96-Well Assay Block) in an amount of 1.0 μL per well, and thereafter, 50 μL of a phosphate buffer solution (a 100 mM potassium phosphate buffer solution (pH 6.5)), 25 μL of a substrate solution (a 100 mM potassium phosphate buffer solution (pH 6.5), 4.0 μM rotenone, 80 μM fatty acid-free bovine serum albumin, 160 μM palmitoyl-CoA, 80 μM malonyl-CoA, 3.5 μM [^14C]-malonyl-CoA (1.92 GBq/mmol, manufactured by Amersham, Inc.)) was added to each well, and further, 25 μL of an enzyme solution (a 100 mM potassium phosphate buffer solution (pH 6.5), 100 μg/mL human LCE) was added thereto. Then, the upper part of the plate was hermetically closed with a seal member, and the plate was incubated at 37° C. for 90 minutes while gently shaking and stirring. Thereafter, to each well, 100 μL of 5 N HCl was added and the assay plate was stirred at room temperature for 5 minutes, whereby the enzymatic reaction was stopped and also acyl-CoA was hydrolyzed. Thereafter, the enzymatic reaction solution in each well was adsorbed to each well of a 96-well GF/C filter plate (PerkinElmer, Unifilter 96GF/C) through which water had been passed in advance, and then, each well was washed with water to remove unadsorbed malonyl-CoA and the GF/C filter plate was dried at 50° C. for 60 minutes. Thereafter, to each well, 30 μL of a scintillator (PerkinElmer, Microscinti 0) was added and the upper part of the plate was sealed, and the radioactivity of the fixed [^14C] was measured using a microplate scintillation counter (PerkinElmer, Top Count) from which the enzymatic activity was determined. The human LCE enzyme inhibitory activity of the test compound was calculated using the radioactivity obtained from a well to which DMSO containing no test compound is added as a control.

pIC50 | SMILES
6.57 | CC(C)Oc1ccc(NC(=O)[C@@H]2C[C@@H]3CC[C@H]2N(S(=O)(=O)c2cn(C)cn2)C3)cc1 (relative stereo) [Example 26, (1R*,4S*,6R*)-N-(4-Isopropoxyphenyl)-2-[(1-methyl-1H-imidazol-4-yl)sulfonyl]-2-azabicyclo[2.2.2]octane-6-carboxamide]
6.81 | CCCCS(=O)(=O)N1C[C@H]2CC[C@@H]1[C@H](C(=O)Nc1cc(C3CC3)n[nH]1)C2 (relative stereo) [Example 42, (1R*,4S*,6R*)-2-(Butylsulfonyl)-N-(3-cyclopropyl-1H-pyrazol-5-yl)-2-azabicyclo[2.2.2]octane-6-carboxamide]
7.72 | CC(C)Oc1ccc(NC(=O)[C@@H]2C[C@@H]3CC[C@H]2N(S(=O)(=O)c2ccccn2)C3)nc1 (relative stereo) [Example 47, (1R*,4S*,6R*)-N-(5-Isopropoxypyridin-2-yl)-2-(pyridin-2-ylsulfonyl)-2-azabicyclo[2.2.2]octane-6-carboxamide]
6.80 | CC(C)Oc1ccc(NC(=O)[C@@H]2C[C@@H]3CC[C@H]2N(S(=O)(=O)c2cn(C)cn2)C3)nc1 (relative stereo) [Example 48, (1R*,4S*,6R*)-N-(5-isopropoxypyridin-2-yl)-2-[(1-methyl-1H-imidazol-4-yl)sulfonyl]-2-azabicyclo[2.2.2]octane-6-carboxamide]
6.88 | CC(C)Oc1cc(NC(=O)[C@@H]2C[C@@H]3CC[C@H]2N(S(=O)(=O)c2cn(C)cn2)C3)n[nH]1 (relative stereo) [Example 105, (1R*,4S*,6R*)-N-(5-Isopropoxy-1H-pyrazol-3-yl)-2-[(1-methyl-1H-imidazol-4-yl)sulfonyl]-2-azabicyclo[2.2.2]octane-6-carboxamide]
7.70 | COc1ccccc1C(=O)NCC1(c2ccccc2)CCCN(S(=O)(=O)c2ccccn2)C1 (stereo not drawn) [Example 64, 2-Methoxy-N-{[3-phenyl-1-(pyridin-2-ylsulfonyl)piperidin-3-yl]methyl}benzamide]
8.43 | CC(C)Oc1ccc(C(=O)NCC2(c3ccccc3)CCCN(S(=O)(=O)c3ccccn3)C2)cc1 (stereo not drawn) [Example 73, 4-Isopropoxy-N-{[3-phenyl-1-(pyridin-2-ylsulfonyl)piperidin-3-yl]methyl}benzamide]
7.76 | CC(C)Oc1ccc(C(=O)NCC2(c3ccccc3)CCCN(S(=O)(=O)c3cn(C)cn3)C2)cc1 (stereo not drawn) [Example 74, 4-Isopropoxy-N-({1-[(1-methyl-1H-imidazol-4-yl)sulfonyl]-3-phenylpiperidin-3-yl}methyl)benzamide]
7.36 | CCCS(=O)(=O)N1CCCC(CNC(=O)c2ccc(OC(C)C)cn2)(c2ccccc2)C1 (stereo not drawn) [Example 76, 5-Isopropoxy-N-{[3-phenyl-1-(propylsulfonyl)piperidin-3-yl]methyl}pyridine-2-carboxamide]
7.85 | CC(C)Oc1ccc(C(=O)NCC2(c3ccccc3)CCCN(S(=O)(=O)c3ccccn3)C2)nc1 (stereo not drawn) [Example 78, 5-Isopropoxy-N-{[3-phenyl-1-(pyridin-2-ylsulfonyl)piperidin-3-yl]methyl}pyridine-2-carboxamide]
7.31 | CC(C)Oc1ccc(C(=O)NCC2(c3ccccc3)CCCN(S(=O)(=O)c3cn(C)cn3)C2)nc1 (stereo not drawn) [Example 79, 5-Isopropoxy-N-({1-[(1-methyl-1H-imidazol-4-yl)sulfonyl]-3-phenylpiperidin-3-yl}methyl)pyridine-2-carboxamide]
7.29 | CC(C)Oc1ccc(C(=O)NCC2(C)CCCN(S(=O)(=O)c3ccccc3)C2)cc1 (stereo not drawn) [Example 81, 4-Isopropoxy-N-{[3-methyl-1-(phenylsulfonyl)piperidin-3-yl]methyl}benzamide]
7.22 | CC(C)Oc1ccc(C(=O)NCC2(C)CCCN(S(=O)(=O)c3ccccn3)C2)cc1 (stereo not drawn) [Example 82, 4-Isopropoxy-N-{[3-methyl-1-(pyridin-2-ylsulfonyl)piperidin-3-yl]methyl}benzamide]
7.85 | CCC1(CNC(=O)c2ccc(OC(C)C)cc2)CCCN(S(=O)(=O)c2ccccn2)C1 (stereo not drawn) [Example 85, N-{[3-Ethyl-1-(pyridin-2-ylsulfonyl)piperidin-3-yl]methyl}-4-isopropoxybenzamide]
6.55 | CCC1(CNC(=O)c2ccc(OC(C)C)cc2)CCCN(S(=O)(=O)c2cn(C)cn2)C1 (stereo not drawn) [Example 86, N-({3-Ethyl-1-[(1-methyl-1H-imidazol-4-yl)sulfonyl]piperidin-3-yl}methyl)-4-isopropoxybenzamide]
7.92 | CC(C)Cc1cc(C(=O)NCC2(c3ccccc3)CCCN(S(=O)(=O)c3cn(C)cn3)C2)[nH]n1 (stereo not drawn) [Example 98, 3-Isobutyl-N-({1-[(1-methyl-1H-imidazol-4-yl)sulfonyl]-3-phenylpiperidin-3-yl}methyl)-1H-pyrazole-5-carboxamide]
7.46 | CCC1(C(=O)Nc2ccc(OC(C)C)cn2)CCCN(S(=O)(=O)c2cn(C)cn2)C1 (stereo not drawn) [Example 103, 3-Ethyl-N-(5-isopropoxypyridin-2-yl)-1-[(1-methyl-1H-imidazol-4-yl)sulfonyl]piperidine-3-carboxamide]
7.42 | CCC1(C(=O)Nc2cc(OC(C)C)[nH]n2)CCCN(S(=O)(=O)c2cn(C)cn2)C1 (stereo not drawn) [Example 104, 3-Ethyl-N-(5-isopropoxy-1H-pyrazol-3-yl)-1-[(1-methyl-1H-imidazol-4-yl)sulfonyl]piperidine-3-carboxamide]
